Where two headings read alike, the source gives them in different places. Positions of bridges follow the written chain, without caps; N, C: chain ends. Non-standard residues stand in square brackets, D forms with d. Residues, ends and D or L forms follow the SMILES beside them. ξ: configuration not given here. NMeIle(3ξ) = CCC(C)[C@H](NC)C(=O)O; Hyp = O=C(O)[C@@H]1C[C@@H](O)CN1; NMeF = CN[C@@H](Cc1ccccc1)C(=O)O; NMeNle = CCCC[C@H](NC)C(=O)O; NMeA = CN[C@@H](C)C(=O)O; Dab = NCC[C@H](N)C(=O)O; dAze = O=C(O)[C@H]1CCN1; Dap = NC[C@H](N)C(=O)O; ξC = NC(CS)C(=O)O; Sar = CNCC(=O)O
Tests used:
[1] = target: T1, Human PD-L1/PD-1 (Homo sapiens, UniProt Q9NZQ7); assay: HTRF PD-1-Ig/PD-L1-His binding assay (human PD-L1); conditions: cluster symbol; read-out: HTRF IC50 cluster
T1 construct: made in house; host or cells: HEK293T
Outline: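 Soluble PD-1-Ig binding to PD-L1-His measured by HTRF in dPBS with 0.1% BSA and 0.05% Tween-20. Detection used europium cryptate anti-Ig antibody (1 nM final) and APC anti-His antibody (20 nM final) added on top of the binding reaction.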

[2] = target: T2, LK35.2-hPD-L1 cells / PE-labeled PD-1-Ig (Homo sapiens, UniProt Q9NZQ7); assay: LK35.2-hPD-L1 cell binding high-content screening assay; assay type: cell-based; conditions: cluster symbol, read-out: CBA IC50 cluster
T2 construct: expressed in transfected cells; host or cells: LK35.2 mouse B cell line
Outline: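 Mouse LK35.2 B cells stably over-expressing human PD-L1, cultured overnight, treated with compound plus PE-labeled human PD-1-Ig (1 nM final) in RPMI/10% FCS for 1 h at 37 °C. After washing, bound fluorescence quantified by high-content imaging.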

[3] = cell binding assay, cell line not given

T2 sequence (Q9NZQ7 19-290): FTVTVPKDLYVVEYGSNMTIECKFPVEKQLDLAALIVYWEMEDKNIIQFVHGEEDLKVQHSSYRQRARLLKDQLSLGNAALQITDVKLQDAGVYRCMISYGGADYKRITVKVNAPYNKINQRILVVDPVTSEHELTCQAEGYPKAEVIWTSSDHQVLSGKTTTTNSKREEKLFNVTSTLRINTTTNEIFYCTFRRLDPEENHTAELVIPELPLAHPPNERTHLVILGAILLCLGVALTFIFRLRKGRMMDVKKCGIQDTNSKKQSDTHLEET
T1 sequence (Q9NZQ7 with tags, fused parts or gaps): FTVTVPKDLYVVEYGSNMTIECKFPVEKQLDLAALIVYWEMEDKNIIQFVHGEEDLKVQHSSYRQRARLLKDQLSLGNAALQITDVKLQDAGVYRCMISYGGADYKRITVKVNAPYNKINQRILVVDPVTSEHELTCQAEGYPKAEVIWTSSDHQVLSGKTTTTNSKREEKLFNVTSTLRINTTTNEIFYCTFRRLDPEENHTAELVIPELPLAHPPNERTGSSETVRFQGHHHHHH

| SMILES | IC50 [1] [nM] | IC50 ([2]; cell line of CBA not given (LK35.2-hPD-L1 or 293T-hPD-L1)) [nM] | IC50 [2, 3] [nM] |
| --- | --- | --- | --- |
| CCCC[C@H]1C(=O)N(C)[C@@H](CCCC)C(=O)N[C@@H](CCCN)C(=O)N[C@H](C(=O)NCC(N)=O)CSCC(=O)N[C@@H](Cc2ccc(O)cc2)C(=O)N2C[C@@H](N)C[C@H]2C(=O)N[C@@H](CC(N)=O)C(=O)N2CCC[C@H]2C(=O)N[C@@H](Cc2cnc[nH]2)C(=O)N[C@@H](CC(C)C)C(=O)N2C[C@H](O)C[C@H]2C(=O)N[C@@H](Cc2c[nH]c3ccccc23)C(=O)N[C@@H](CO)C(=O)N[C@@H](Cc2c[nH]c3ccccc23)C(=O)N1C [Example 1188] | 6.76 to 30.3 | 4.78 to 72.9 | – |
| CCCCC1C(=O)N[C@@H](CCC(=O)O)C(=O)N[C@@H](CC(=O)O)C(=O)N[C@@H](C(C)C)C(=O)N(C)[C@@H](Cc2ccccc2)C(=O)N[C@@H](Cc2ccc(O)cc2)C(=O)N(C)CC(=O)N[C@@H](Cc2c[nH]c3ccccc23)C(=O)N[C@@H](Cc2ccc(O)cc2)C(=O)N[C@@H](CC(C)C)C(=O)N[C@H](C(=O)NCC(N)=O)CSCC(=O)N[C@@H](Cc2ccccc2)C(=O)N(C)[C@@H](Cc2ccccc2)C(=O)N1C (some centres unmarked) [Example 3500] (HELM PEPTIDE1{[O=C(C[*:3])[*:2]].F.[meF].[CCCCC(C(=O)[*:2])N(C)[*:1]].E.D.V.[meF].Y.[Sar].W.Y.L.C.G.[am]}$PEPTIDE1,PEPTIDE1,1:R3-14:R3$$$V2.0) | > 30.5 | – | > 74.3 |
| CCCC[C@H]1C(=O)N(C)[C@@H](C(C)CC)C(=O)N[C@@H](CN)C(=O)N[C@H](C(=O)NCC(N)=O)CSCC(=O)N[C@@H](Cc2ccc(O)cc2)C(=O)N(C)[C@@H](C)C(=O)N[C@@H](CC(N)=O)C(=O)N2CCC[C@H]2C(=O)N[C@@H](Cc2c[nH]cn2)C(=O)N[C@@H](CCC(=O)O)C(=O)N2C[C@H](O)C[C@H]2C(=O)N[C@@H](Cc2c[nH]c3ccccc23)C(=O)N[C@@H](CCN)C(=O)N[C@@H](Cc2c[nH]c3ccccc23)C(=O)N1C (some centres unmarked) [Example 5142] ({CH2CO}-Y[NMeA]NPHE[Hyp]W[Dab]W[NMeNle][NMeIle(3ξ)][Dap]CG-NH2; thioether N-14) | 6.76 to 30.3 | – | 4.78 to 72.9 |
| CCCC[C@H]1C(=O)N(C)[C@@H](CCCC)C(=O)N[C@@H](CCCNC(=N)N)C(=O)NC(C(=O)NCC(N)=O)CSCC(=O)N[C@@H](Cc2ccc(O)cc2)C(=O)N(C)[C@@H](C)C(=O)N[C@@H](CC(N)=O)C(=O)N2CCC[C@H]2C(=O)N[C@@H](CO)C(=O)N[C@@H](CC(C)C)C(=O)N2CCC[C@H]2C(=O)N[C@@H](Cc2c[nH]c3ccccc23)C(=O)N[C@@H](CO)C(=O)N[C@@H](Cc2c[nH]c3ccccc23)C(=O)N1C (some centres unmarked) [Example 9073] ({CH2CO}-Y[NMeA]NPSLPWSW[NMeNle][NMeNle]R[ξC]G-NH2; thioether N-14) | 0.385 to 6.74 | – | 0.158 to 4.71 |

Now from value to compound:

| IC50 [1] [nM] | IC50 ([2]; cell line of CBA not given (LK35.2-hPD-L1 or 293T-hPD-L1)) [nM] | IC50 [2, 3] [nM] | SMILES |
| --- | --- | --- | --- |
| 6.76 to 30.3 | – | 4.78 to 72.9 | CCCC[C@H]1C(=O)N2CC[C@@H]2C(=O)N[C@@H](CC(=O)O)C(=O)N[C@@H](C(C)C)C(=O)N(C)[C@@H](Cc2ccccc2)C(=O)N[C@@H](Cc2ccc(O)cc2)C(=O)N(C)CC(=O)N[C@@H](Cc2c[nH]c3ccccc23)C(=O)N[C@@H](Cc2ccc(O)cc2)C(=O)N[C@@H](CC(C)C)C(=O)N[C@H](C(=O)NCC(N)=O)CSCC(=O)N[C@@H](Cc2ccccc2)C(=O)N(C)[C@@H](Cc2ccccc2)C(=O)N1C [Example 3582] ({CH2CO}-F[NMeF][NMeNle][dAze]DV[NMeF]Y[Sar]WYLCG-NH2; thioether N-13) |
| 0.385 to 6.74 | – | 0.158 to 4.71 | CCCC[C@H]1C(=O)N(C)[C@@H](CCCC)C(=O)N[C@@H](CC(C)C)C(=O)N[C@H](C(=O)NCC(N)=O)CSCC(=O)N[C@@H](Cc2ccc(O)cc2)C(=O)N(C)[C@@H](C)C(=O)N[C@@H](CC(N)=O)C(=O)N2CCC[C@H]2C(=O)N[C@@H](Cc2c[nH]cn2)C(=O)N[C@@H](CCC(N)=O)C(=O)N2C[C@H](O)C[C@H]2C(=O)N[C@@H](Cc2c[nH]c3ccccc23)C(=O)NCC(=O)N[C@@H](Cc2c[nH]c3ccccc23)C(=O)N1C [Example 5109] ({CH2CO}-Y[NMeA]NPHQ[Hyp]WGW[NMeNle][NMeNle]LCG-NH2; thioether N-14) |
| 0.385 to 6.74 | – | 4.78 to 72.9 | CCCC[C@H]1C(=O)N(C)[C@@H](CCCC)C(=O)N[C@@H](C)C(=O)N[C@H](C(=O)NCC(N)=O)CSCC(=O)N[C@@H](Cc2ccc(O)cc2)C(=O)N(C)[C@@H](C)C(=O)N[C@@H](CCN)C(=O)N2CCC[C@H]2C(=O)N[C@@H](Cc2c[nH]cn2)C(=O)N[C@@H](CCC(=O)O)C(=O)N2C[C@H](O)C[C@H]2C(=O)N[C@@H](Cc2c[nH]c3ccccc23)C(=O)N[C@@H](CO)C(=O)N[C@@H](Cc2c[nH]c3ccccc23)C(=O)N1C [Example 5087] ({CH2CO}-Y[NMeA][Dab]PHE[Hyp]WSW[NMeNle][NMeNle]ACG-NH2; thioether N-14) |

Reference: patent publication US9850283B2, “Macrocyclic inhibitors of the PD-1/PD-L1 and CD80(B7-1)/PD-L1 protein/protein interactions” (BRISTOL-MYERS SQUIBB COMPANY, priority 2013, dated 2017)
